PubChem BioAssay AID2060328 (Molecular Pharmacology Branch, DTP, NCI, 2025)

Tested on: MDA-MB-231 multicell spheroids, viability (%T/C)
Assay: Anticancer human tumor MDA-MB-231 cell line growth inhibition [IpAb];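 also: viability read after seven days of drug exposure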;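 as to viability, T/C: 100% = DMSO vehicle control viability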
Conditions: for IC50: curve of first compound; for viability, T/C: stronger effect = lower value
In short: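 Multi-cell spheroids of 60% tumour cells, 25% HUVEC and 15% MSC in ultra-low-attachment U-bottom wells, treated with agents combined with ipatasertib or abemaciclib. Half-log ranges top out near clinical Cmax, or 10 microM when Cmax is unknown.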

[1] = second compound 0.1 µM, first compound 0.0316 µM
[2] = second compound 0.1 µM, first compound 0.1 µM
[3] = second compound 0.1 µM, first compound 0.316 µM
[4] = second compound 0.1 µM, first compound 1 µM
[5] = second compound 0.1 µM, first compound 3.16 µM
[6] = second compound 0.1 µM, first compound 10 µM
[7] = second compound 0.316 µM, first compound 0.0316 µM
[8] = second compound 0.316 µM, first compound 0.1 µM
[9] = second compound 0.316 µM, first compound 0.316 µM
[10] = second compound 0.316 µM, first compound 1 µM
[11] = second compound 0.316 µM, first compound 3.16 µM
[12] = second compound 0.316 µM, first compound 10 µM
[13] = second compound 1 µM, first compound 0.0316 µM
[14] = second compound 1 µM, first compound 0.1 µM
[15] = second compound 1 µM, first compound 0.316 µM
[16] = second compound 1 µM, first compound 1 µM
[17] = second compound 1 µM, first compound 3.16 µM
[18] = second compound 1 µM, first compound 10 µM
[19] = second compound 3.16 µM, first compound 0.0316 µM
[20] = second compound 3.16 µM, first compound 0.1 µM
[21] = second compound 3.16 µM, first compound 0.316 µM
[22] = second compound 3.16 µM, first compound 1 µM
[23] = second compound 3.16 µM, first compound 3.16 µM
[24] = second compound 3.16 µM, first compound 10 µM
[25] = second compound 10 µM, first compound 0.0316 µM
[26] = second compound 10 µM, first compound 0.1 µM
[27] = second compound 10 µM, first compound 0.316 µM
[28] = second compound 10 µM, first compound 1 µM
[29] = second compound 10 µM, first compound 3.16 µM
[30] = second compound 10 µM, first compound 10 µM

With C=CC(=O)N1CCN(c2nc(=O)n(-c3c(C)ccnc3C(C)C)c3nc(-c4c(O)cccc4F)c(F)cc23)C(C)C1 (stereo not given) + CC(C)NCC(C(=O)N1CCN(c2ncnc3c2C(C)CC3O)CC1)c1ccc(Cl)cc1 as the compound, how does the IC50 (second compound 0.1 µM) read?
Its IC50 is > 10000 nM.

And the IC50 (second compound 0.316 µM)?
Its IC50 is > 10000 nM.

And the IC50 (second compound 1 µM)?
The IC50 was > 10000 nM.

And the IC50 (second compound 3.16 µM)?
The IC50 was > 10000 nM.

What about the IC50 (second compound 10 µM) of the same compound?
The IC50 was < 31.6 nM.

And the viability, T/C [1]?
The viability, T/C was 111%.

What about the viability, T/C [2] of the same compound?
Its viability, T/C is 113%.

And the viability, T/C [3]?
Its viability, T/C is 116%.

And the viability, T/C [4]?
Its viability, T/C is 129%.

And the viability, T/C [5]?
Its viability, T/C is 120%.

And the viability, T/C [6]?
The viability, T/C was 78.3%.

And the viability, T/C [7]?
The viability, T/C was 96.1%.

What about the viability, T/C [8] of the same compound?
Its viability, T/C is 97%.

What about the viability, T/C [9] of the same compound?
The viability, T/C was 105%.

And the viability, T/C [10]?
The viability, T/C was 111%.

And the viability, T/C [11]?
Its viability, T/C is 95.4%.

And the viability, T/C [12]?
Its viability, T/C is 64.4%.

And the viability, T/C [13]?
The viability, T/C was 81.9%.

What about the viability, T/C [14] of the same compound?
The viability, T/C was 79.8%.

What about the viability, T/C [15] of the same compound?
Its viability, T/C is 82.3%.

What about the viability, T/C [16] of the same compound?
The viability, T/C was 86%.

And the viability, T/C [17]?
The viability, T/C was 71%.

And the viability, T/C [18]?
Its viability, T/C is 52.6%.

What about the viability, T/C [19] of the same compound?
Its viability, T/C is 57.2%.

What about the viability, T/C [20] of the same compound?
The viability, T/C was 68.6%.

And the viability, T/C [21]?
Its viability, T/C is 67%.

What about the viability, T/C [22] of the same compound?
Its viability, T/C is 67.5%.

And the viability, T/C [23]?
Its viability, T/C is 62.1%.

And the viability, T/C [24]?
The viability, T/C was 44.5%.

What about the viability, T/C [25] of the same compound?
Its viability, T/C is 42.5%.

What about the viability, T/C [26] of the same compound?
Its viability, T/C is 45.9%.

And the viability, T/C [27]?
Its viability, T/C is 44.4%.

What about the viability, T/C [28] of the same compound?
The viability, T/C was 42.7%.

What about the viability, T/C [29] of the same compound?
The viability, T/C was 41.6%.

What about the viability, T/C [30] of the same compound?
Its viability, T/C is 32.1%.

With CC(C)(C)c1cnc(CSc2cnc(NC(=O)C3CCNCC3)s2)o1 + CC(C)NCC(C(=O)N1CCN(c2ncnc3c2C(C)CC3O)CC1)c1ccc(Cl)cc1 as the compound, how does the IC50 (second compound 0.1 µM) read?
The IC50 was 171 nM.

What about the IC50 (second compound 0.316 µM) of the same compound?
Its IC50 is 152 nM.

What about the IC50 (second compound 1 µM) of the same compound?
Its IC50 is 140 nM.

What about the IC50 (second compound 3.16 µM) of the same compound?
The IC50 was 109 nM.

And the IC50 (second compound 10 µM)?
Its IC50 is < 9.49 nM.

And the viability, T/C (second compound 0.1 µM, first compound 0.00949 µM)?
Its viability, T/C is 110%.

What about the viability, T/C (second compound 0.1 µM, first compound 0.03 µM) of the same compound?
Its viability, T/C is 115%.

What about the viability, T/C (second compound 0.1 µM, first compound 0.0949 µM) of the same compound?
Its viability, T/C is 101%.

What about the viability, T/C (second compound 0.1 µM, first compound 0.3 µM) of the same compound?
Its viability, T/C is 1.85%.

And the viability, T/C (second compound 0.1 µM, first compound 0.949 µM)?
The viability, T/C was 1.02%.

What about the viability, T/C (second compound 0.1 µM, first compound 3 µM) of the same compound?
The viability, T/C was 1.06%.

And the viability, T/C (second compound 0.316 µM, first compound 0.00949 µM)?
Its viability, T/C is 94.5%.

What about the viability, T/C (second compound 0.316 µM, first compound 0.03 µM) of the same compound?
The viability, T/C was 98.8%.

And the viability, T/C (second compound 0.316 µM, first compound 0.0949 µM)?
Its viability, T/C is 83.5%.

And the viability, T/C (second compound 0.316 µM, first compound 0.3 µM)?
Its viability, T/C is 1.35%.

And the viability, T/C (second compound 0.316 µM, first compound 0.949 µM)?
Its viability, T/C is 0.87%.

And the viability, T/C (second compound 0.316 µM, first compound 3 µM)?
The viability, T/C was 0.98%.

What about the viability, T/C (second compound 1 µM, first compound 0.00949 µM) of the same compound?
Its viability, T/C is 79.2%.

And the viability, T/C (second compound 1 µM, first compound 0.03 µM)?
The viability, T/C was 84.8%.

And the viability, T/C (second compound 1 µM, first compound 0.0949 µM)?
The viability, T/C was 74.4%.

And the viability, T/C (second compound 1 µM, first compound 0.3 µM)?
The viability, T/C was 2.5%.

What about the viability, T/C (second compound 1 µM, first compound 0.949 µM) of the same compound?
Its viability, T/C is 0.85%.

And the viability, T/C (second compound 1 µM, first compound 3 µM)?
Its viability, T/C is 0.86%.

And the viability, T/C (second compound 3.16 µM, first compound 0.00949 µM)?
The viability, T/C was 61.1%.

And the viability, T/C (second compound 3.16 µM, first compound 0.03 µM)?
The viability, T/C was 61.7%.

And the viability, T/C (second compound 3.16 µM, first compound 0.0949 µM)?
Its viability, T/C is 56.5%.

What about the viability, T/C (second compound 3.16 µM, first compound 0.3 µM) of the same compound?
The viability, T/C was 1.57%.

And the viability, T/C (second compound 3.16 µM, first compound 0.949 µM)?
The viability, T/C was 0.65%.

What about the viability, T/C (second compound 3.16 µM, first compound 3 µM) of the same compound?
The viability, T/C was 0.78%.

What about the viability, T/C (second compound 10 µM, first compound 0.00949 µM) of the same compound?
Its viability, T/C is 42.1%.

What about the viability, T/C (second compound 10 µM, first compound 0.03 µM) of the same compound?
The viability, T/C was 43.8%.

And the viability, T/C (second compound 10 µM, first compound 0.0949 µM)?
Its viability, T/C is 35.1%.

And the viability, T/C (second compound 10 µM, first compound 0.3 µM)?
Its viability, T/C is 0.95%.

And the viability, T/C (second compound 10 µM, first compound 0.949 µM)?
Its viability, T/C is 0.79%.

What about the viability, T/C (second compound 10 µM, first compound 3 µM) of the same compound?
Its viability, T/C is 0.8%.

For Cn1nccc1Nc1nccc(-c2ccn(C(CO)c3ccc(Cl)c(F)c3)c(=O)c2)n1 (stereo not given) + CC(C)NCC(C(=O)N1CCN(c2ncnc3c2C(C)CC3O)CC1)c1ccc(Cl)cc1, which IC50 (second compound 0.1 µM) is on record?
Its IC50 is 259 nM.

And the IC50 (second compound 0.316 µM)?
Its IC50 is 45.9 nM.

And the IC50 (second compound 1 µM)?
Its IC50 is < 31.6 nM.

What about the IC50 (second compound 3.16 µM) of the same compound?
Its IC50 is < 31.6 nM.

And the IC50 (second compound 10 µM)?
The IC50 was < 31.6 nM.

What about the viability, T/C [1] of the same compound?
Its viability, T/C is 64.3%.

And the viability, T/C [2]?
Its viability, T/C is 53.5%.

And the viability, T/C [3]?
The viability, T/C was 48.7%.

And the viability, T/C [4]?
Its viability, T/C is 43.1%.

What about the viability, T/C [5] of the same compound?
The viability, T/C was 25.2%.

And the viability, T/C [6]?
Its viability, T/C is 18.7%.

And the viability, T/C [7]?
The viability, T/C was 52.8%.

And the viability, T/C [8]?
Its viability, T/C is 43.8%.

What about the viability, T/C [9] of the same compound?
Its viability, T/C is 38.1%.

And the viability, T/C [10]?
The viability, T/C was 29.3%.

What about the viability, T/C [11] of the same compound?
Its viability, T/C is 23.5%.

What about the viability, T/C [12] of the same compound?
Its viability, T/C is 18%.

What about the viability, T/C [13] of the same compound?
Its viability, T/C is 38.7%.

And the viability, T/C [14]?
The viability, T/C was 36.1%.

What about the viability, T/C [15] of the same compound?
The viability, T/C was 32.2%.

What about the viability, T/C [16] of the same compound?
Its viability, T/C is 27.8%.

What about the viability, T/C [17] of the same compound?
The viability, T/C was 16.3%.

And the viability, T/C [18]?
Its viability, T/C is 15.3%.

And the viability, T/C [19]?
The viability, T/C was 34.3%.

What about the viability, T/C [20] of the same compound?
The viability, T/C was 28.7%.

And the viability, T/C [21]?
The viability, T/C was 27.1%.

And the viability, T/C [22]?
The viability, T/C was 21.5%.

What about the viability, T/C [23] of the same compound?
Its viability, T/C is 12.9%.

And the viability, T/C [24]?
Its viability, T/C is 10.4%.

What about the viability, T/C [25] of the same compound?
The viability, T/C was 24.2%.

And the viability, T/C [26]?
Its viability, T/C is 22.8%.

What about the viability, T/C [27] of the same compound?
Its viability, T/C is 16.7%.

What about the viability, T/C [28] of the same compound?
Its viability, T/C is 14.9%.

And the viability, T/C [29]?
The viability, T/C was 9%.

And the viability, T/C [30]?
Its viability, T/C is 6.42%.
